# Reference: publication PMC8918029 (Journal of medicinal chemistry, 2021)
# “Also recorded” adds a separate entry of the source.
# Key:
# [1] = biological target: purified γ-secretase (Homo sapiens, UniProt P49768); assay: Inhibition constant; type: biochemical; details: double-reciprocal plots, varying C100Flag
# [2] = biological target: γ-secretase (Homo sapiens, UniProt P49768); assay: Cross-competition kinetic experiments between two inhibitors; type: biochemical; details: [38] = 0, 0.15, 0.30, 0.60 nM; C100 0.50 μM; parallel lines indicate cross-competition
smiles,measurement,setting,value
"CC[C@@H](C)[C@@H](NC(=O)[C@H](NC(=O)[C@H](NC(=O)C(C)(C)NC(=O)CNC(=O)[C@H](NC(=O)OC(C)(C)C)C(C)C)C(C)C)C(C)C)C(=O)NC(C)(C)C(=O)N[C@@H](C(=O)N[C@@H](C(=O)NC(C)(C)C(=O)NCCCCCCCCCCC(=O)N[C@H](C(=O)N[C@@H](Cc1ccccc1)[C@H](O)CN(Cc1ccccc1)C(=O)N[C@@H](CC(C)C)C(=O)N[C@H](C(N)=O)C(C)C)C(C)C)C(C)C)[C@H](C)O [Compound 38, Boc-^DVal-Gly-Aib-^DVal-^DVal-^DIle-Aib-^DThr- ^DVal-Aib-NH(CH2)10CO-Val-Phe-ψ-Phe-Leu-Val-NH2]",Inhibition profile (mode of inhibition),[1],noncompetitive; also recorded: non-competitive inhibition
same,Cross-competition with TSA 1 and HPI 2 for binding,[2],could compete with both TSA 1 and HPI 2; also recorded: competes with both TSA 1 and HPI 2
